Measured values reported in the supplement of paper PMC10307832.

Legend:
Experiment in all cases: relative viability (nuclei count vs DMSO), 5 days (fraction); higher = more cells survive
Bemcentinib + Bortezomib = compound: Nc1nc(Nc2ccc3c(c2)CC[C@@H](N2CCCC2)CC3)nn1-c1cc2c(nn1)-c1ccccc1CCC2 [Bemcentinib] + CC(C)C[C@H](NC(=O)[C@H](Cc1ccccc1)NC(=O)c1cnccn1)B(O)O [Bortezomib] (partner 0.002 µM)
Procedure, shortened: (§1)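 A single step with final 0.05% Triton X-100, 1% formaldehyde and 1 ug/ml Hoechst fixed the cells and stained nuclei 5 days after treatment. Lung cancer cell lines in 1536-well plates had been treated by pin tool the day after seeding with one drug alone or a fixed anchor-drug dose plus five library-drug doses (not always all listed) in √10 steps, and nuclei were counted on 4× images. Relative viability is the ratio of nuclei in treated wells to nuclei in vehicle wells, taken as the median of duplicate plates.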

Bemcentinib + Pictilisib = compound: Nc1nc(Nc2ccc3c(c2)CC[C@@H](N2CCCC2)CC3)nn1-c1cc2c(nn1)-c1ccccc1CCC2 [Bemcentinib] + CS(=O)(=O)N1CCN(Cc2cc3nc(-c4cccc5[nH]ncc45)nc(N4CCOCC4)c3s2)CC1 [Pictilisib] (partner 1 µM)
Procedure, shortened: as §1

Bemcentinib + Trametinib = compound: Nc1nc(Nc2ccc3c(c2)CC[C@@H](N2CCCC2)CC3)nn1-c1cc2c(nn1)-c1ccccc1CCC2 [Bemcentinib] + CC(=O)Nc1cccc(-n2c(=O)n(C3CC3)c(=O)c3c(Nc4ccc(I)cc4F)n(C)c(=O)c(C)c32)c1 [Trametinib] (partner 0.02 µM)
Procedure, shortened: as §1

Axitinib + Tozasertib = compound: CNC(=O)c1ccccc1Sc1ccc2c(/C=C/c3ccccn3)n[nH]c2c1 [Axitinib] + Cc1cc(Nc2cc(N3CCN(C)CC3)nc(Sc3ccc(NC(=O)C4CC4)cc3)n2)n[nH]1 [Tozasertib] (partner 0.1 µM)
Procedure, shortened: as §1

NCI-H650
relative viability (Bemcentinib + Bortezomib; first compound 0.04 µM): 0.68
relative viability (Bemcentinib + Bortezomib; first compound 0.1265 µM): 0.855
relative viability (Bemcentinib + Bortezomib; first compound 0.4 µM): 0.92
relative viability (Bemcentinib + Bortezomib; first compound 1.265 µM): 0.628
relative viability (Bemcentinib + Bortezomib; first compound 4 µM): 0.701
relative viability (Bemcentinib + Pictilisib; first compound 0.04 µM): 0.835
relative viability (Bemcentinib + Pictilisib; first compound 0.1265 µM): 1.08
relative viability (Bemcentinib + Pictilisib; first compound 0.4 µM): 0.887
relative viability (Bemcentinib + Pictilisib; first compound 1.265 µM): 0.766
relative viability (Bemcentinib + Pictilisib; first compound 4 µM): 0.827
relative viability (Bemcentinib + Trametinib; first compound 0.04 µM): 1.08
relative viability (Bemcentinib + Trametinib; first compound 0.1265 µM): 0.993
relative viability (Bemcentinib + Trametinib; first compound 0.4 µM): 0.963
relative viability (Bemcentinib + Trametinib; first compound 1.265 µM): 0.947
relative viability (Bemcentinib + Trametinib; first compound 4 µM): 0.966
relative viability (Axitinib + Tozasertib; first compound 0.005 µM): 0.714
relative viability (Axitinib + Tozasertib; first compound 0.01581 µM): 0.734
relative viability (Axitinib + Tozasertib; first compound 0.05 µM): 0.699
relative viability (Axitinib + Tozasertib; first compound 0.1581 µM): 0.693
relative viability (Axitinib + Tozasertib; first compound 0.5 µM): 0.78
